From PMC11311031, “Novel Thienopyrimidine-Hydrazinyl Compounds Induce DRP1-Mediated Non-Apoptotic Cell Death in Triple-Negative Breast Cancer Cells” (Cancers, 2024)
Entries after “also recorded” stand apart in the source; their conditions may differ.

Legend:
Type in all cases: cell-based
[1] = test system: mitochondrial membrane potential in BT-20 cells; test: Mitochondrial membrane potential (TMRE dye); conditions: 200 μM, 4 h, p < 0.0001
Experimental: The mitochondrial membrane potential (MMP) was determined using fluorescence microscopy by staining cellular mitochondria with tetramethylrhodamine ethyl ester (TMRE) dye (Invitrogen, Waltham, MA, USA). […] As a positive control, cells were incubated with carbonyl cyanide 3-chlorophenylhydrazone (CCCP) (TargetMol, Boston, MA, USA), a compound that uncouples mitochondrial oxidative phosphorylation, at a concentration of 200 μM, for 4 h. After incubation with the test compounds, the media was carefully removed from each well and incubated for 20 min with 0.4 µM of TMRE in PBS. Finally, the dye was carefully removed and replaced with fresh PBS. The cells were then imaged to detect MMP using a Cytation 7 Cell Imaging Multi-Mode Reader.

BT-20 cells [2] = test: Sulforhodamine B (SRB) assay; conditions: Homo sapiens, 72 h incubation, read-out: IC50 ± SD, BT-20, SRB Assay
Experimental: (§1) The cytotoxic efficacy of thienopyrimidine derivatives was determined as previously described, using 3 different assays: (1) (3-(4,5-dimethylthiazol-2-yl)-2,5-diphenyltetrazolium bromide) (MTT) (Avantor, Radnor, PA, USA), (2) CellTiter-Blue (CTB) (Promega, Madison, WI, USA), and (3) sulforhodamine B (SRB) (TargetMol, Boston, MA, USA) assay. For these assays, cells were harvested using 0.05% trypsin-ethylenediamine-tetraacetic acid (EDTA) (Corning, Corning, NY, USA), seeded at a density of 3000–5000 cells/well in a 96-well plate, and incubated at 37 °C overnight. The next day, the cells were incubated with different concentrations of the test compounds (0.1, 0.3, 1, 3, 10, 30, or 100 μM) and incubated for 72 h. […] In contrast, vehicle control (cells incubated in drug-free medium) contained less than 0.1% of DMSO.
For the SRB assay, the cells were fixed with 50% (w/v) tri-chloroacetic acid (TCA) (Avantor, Radnor, PA, USA) and incubated at 4 °C for 1 h. The cells were washed 4 times with deionized, distilled water, and air-dried at room temperature. The next day, the cells were stained with 0.04% (w/v) SRB solution for 1 h at room temperature and washed 4 times with 1% (v/v) acetic acid (Avantor, Radnor, PA, USA). After airdrying the plates overnight, 10 mM Tris base solution (pH 10.5) was added to each well and pipetted thoroughly to dissolve the dye, and absorbance was read at 510 nm.

ROS in BT-20 cells = test: Intracellular ROS (H2DCFDA dye); conditions: 2 μM, 2 h, p < 0.0001
Excerpt: It has been reported that ROS can cause the death of cancer cells by inducing apoptosis. Indeed, high levels of ROS activate the p53 enzyme system, which promotes late-stage apoptosis by upregulating the levels of pro-apoptotic proteins such as BAK and BAX and downregulating the levels of anti-apoptotic proteins such as BCL-2, BCL-xL, and MCL-1 [120]. In addition, ROS induce permeabilization of the outer mitochondrial membrane by opening the mitochondrial permeability transition pore (mPTP). This alters the electrochemical proton gradient across the mitochondria, causing the release of pro-apoptotic molecules into the cytoplasm, which are involved in apoptotic cell death. […] Cellular esterases hydrolyze the acetyl groups after the dye is taken up by cells, resulting in the formation of H2DCF [124]. Subsequently, intracellular ROS oxidize H2DCF to produce 2′,7′-dichlorofluorescein, which emits green fluorescence (excitation and emission wavelengths of 485 nm and 522 nm, respectively).

[3] = test system: caspase 3/7 activity in BT-20 cells; test: Caspase-Glo 3/7 activity assay
Experimental: Caspase-Glo® 3/7 Assay (Promega, Madison, WI, USA) was used to study the caspase 3/7 activity in BT-20 cells incubated with lead compounds. Briefly, 3000 BT-20 TNBC cells/well were plated in an opaque 96-well plate. […] Next, a mixture of Caspase-Glo® 3/7 buffer and lyophilized Caspase-Glo® 3/7 substrate was equilibrated to room temperature. The plates were removed from the incubator and allowed to adjust to room temperature for 30 min. Next, 100 μL of the Caspase-Glo® 3/7 reagent was added to each well, and the samples were placed in a shaker for 30 s. After 3 h of incubation at room temperature, luminescence, which indicates cleavage of […] caspases (caspase-3 and -7), was measured using a microplate reader (Agilent Technologies, Winooski, VT, USA).

BT-20 cells [4] = test: MTT cell cytotoxicity assay; conditions: Homo sapiens, 72 h incubation, read-out: IC50 ± SD, BT-20, MTT Assay
Experimental: as §1
For the MTT assay, 4 mg/mL MTT was added to the cells and incubated for 3 h to allow for the conversion of MTT (yellow) to formazan crystals (dark blue). Following incubation, the media was aspirated and DMSO was added to solubilize the formazan crystals. The Cytation 7 Cell Imaging Multi-Mode Reader (Agilent Technologies, Winooski, VT, USA) was used to measure the absorbance at 570 nm.

BT-20 cells [5] = test: Nuclear staining with Hoechst 33342; conditions: 1 μM, 24 h
Experimental: Briefly, 100,000 cells/well of BT-20 cells were plated in a 6-well plate containing clear sterile coverslips. […] Next, the cells were stained with 0.5% v/v of the Hoechst 33342 dye for 15 min. 4% paraformaldehyde at a concentration of 4%, was used to fix cells at room temperature for another 15 min. After 1 wash with PBS, the cells were mounted on a clear slide, using Fluoromount-G (SouthernBiotech, Birmingham, AL, USA). The slides were visualized to detect nuclear fragmentation using the Cytation 7 Cell Imaging Multi-Mode Reader (Agilent Technologies, Winooski, VT, USA), which provided data related to nuclear fragmentation.

[6] = test system: caspases (-3, -7, -8, -9), BAX, BAK, BCL-2, PARP in BT-20 cells; test: Western blot of apoptotic and anti-apoptotic proteins; conditions: 1 μM
Experimental: Subsequently, the cells were washed with ice-cold PBS. The subcellular fraction was obtained by scraping the cells using a cell scrapper in ice-cold cytosolic lysis buffer. Next, the lysates were left on ice for 15 min. Nonyl phenoxypolyethoxylethanol (NP-40) (10% v/v) was introduced in the lysates and subjected to 2–3 min incubation. The lysates were then centrifuged for 10 min at 4 °C and 14,000 rpm. The resultant protein concentration in the lysates was determined using bicinchoninic acid (BCA) assay. Thirty micrograms of the proteins were loaded and separated on a 10% acrylamide SDS-PAGE gel, transferred to a PVDF membrane, and incubated overnight at 4 °C, with primary antibodies against cleaved caspase-3, caspase-3, cleaved caspase-7, caspase-7, cleaved caspase-9, caspase-9, cleaved caspase-8, caspase-8, BAX, BAK, BCL-2, cleaved PARP, PARP, p-DRP1, DRP1, p-MFF, MFF, FIS1, MFN1, MFN2, OPA1, and β-actin. […] ImageJ software (National Institutes of Health, Bethesda, MD, USA) was used to quantify the protein. Cellular proteins were quantified as a ratio to β-actin and were normalized to the vehicle control. The densitometry readings/intensity ratio of each band, andthe original whole western blot (uncropped blots) showing all the bands with the molecular weight markers, is shown in the Supplemental Materials.

[7] = test system: cytochrome c in BT-20 cells; test: Immunofluorescence of cytochrome c; conditions: 1 μM, p < 0.0001
Experimental: Immunofluorescence assays were conducted as previously described. In total, 100,000 BT-20 cells per well were plated on coverslips in a 6-well plate. […] After the incubation period, the media was carefully removed, and the cells were fixed using 1 mL of 4% paraformaldehyde for 15 min at room temperature. The cells were rinsed three times with PBS for 5 min. Five hundred microliters of 0.2% Trition-X100 was added to each well for 10 min to permeabilize the cells. The cells were washed three times with PBS for 5 min each. The cells were then blocked with 3% bovine serum albumin (BSA) in PBS, containing 0.1% Tween, for 2 h at room temperature before incubation with either cytochrome c (1:250), DRP1 (1:50), or phosphorylated-DRP1(1:450) monoclonal antibodies (Cell Signaling Technology, Danvers, MA, USA) overnight at 4 °C. The cells were incubated with either anti-mouse Alexa Fluor™ 594 (Invitrogen, Waltham, MA, USA) or anti-rabbit Alexa Fluor™ 488 at room temperature for 1 h. Nuclei were finally stained with Hoechst 33342 (ImmunoChemistry Technologies, Davis, CA, USA) for 10 min. Images were captured using a Cytation 7 Cell Imaging Multi-Mode Reader.

BT-20 cells [8] = test: CellTiter-Blue (CTB) assay; conditions: Homo sapiens, 72 h incubation, read-out: IC50 ± SD, BT-20, CTB Assay
Experimental: as §1
For the CTB assay, the CTB reagent was added to cells and incubated for 3 h to allow the reduction of resazurin (emits a blue color and low fluorescence) by metabolically active cells to resorufin (emits a pink color and high fluorescence). Finally, the plates were shaken for 10 s in a plate shaker, and fluorescence was measured at 560/590 nm.

[9] = test system: mouse embryonic fibroblast (MEF) cells; test: β-Galactosidase staining (senescence), positive control; conditions: 250 nM, 24 h
Experimental: BT-20 cells were plated at 4000/well into a 96-well plate and incubated overnight. […] Four thousand cells/well of senescent MEFs were also seeded. The plate was incubated for 24 h. Once 80–100% confluency was obtained, mouse embryonic fibroblast (MEF) cells were incubated with 250 nM of doxorubicin for 24 h to induce senescence (positive control), followed by a change in media. The cells were incubated for another week and the media was changed every 3–4 days.
The next day, the cells were washed with PBS and fixed with 3% formaldehyde for 5 min. The cells were washed with PBS twice, followed by an addition of β-galactosidase (Research Products International, Racine, WI, USA) stain. The cells were placed in a 37 °C incubator with no CO2 overnight and imaged to detect β-galactosidase staining the next day using the Color Brightfield channel on the Cytation 7 Imaging Multi-Mode Reader.

## N#CC(C#N)=NNc1cccc(Cl)c1 [CCCP, carbonyl cyanide 3-chlorophenylhydrazone]
[1]
  TMRE fluorescence compared to vehicle control (positive control): significantly lower

## CC(=O)O[C@H]1C(=O)[C@@]2(C)[C@H]([C@H](OC(=O)c3ccccc3)[C@]3(O)C[C@H](OC(=O)[C@H](O)[C@@H](NC(=O)c4ccccc4)c4ccccc4)C(C)=C1C3(C)C)[C@]1(OC(C)=O)CO[C@@H]1C[C@@H]2O [PTX, Paclitaxel]
BT-20 cells [2]
  IC50: 50 nM
ROS in BT-20 cells
  ROS levels compared to vehicle control: significantly elevated
[3]; 0.1 μM
  level of bioluminescence (activation of caspase-3 and caspase-7): significantly increased
[3]; 1 µM, n = 2
  caspase-3 and 7 activity (Caspase-Glo 3/7): induced; also recorded: increased
BT-20 cells [4]
  IC50: 50 nM
BT-20 cells [5]
  level of nuclear fragmentation (positive control): significantly increased
[6]
  Bcl-2 levels compared to vehicle control: significant decrease
  levels of cleaved caspase-3, -7, -8, -9 and total caspase-8 compared to vehicle control: significantly upregulated
[7]
  cytochrome c release compared to vehicle control: significantly enhanced
BT-20 cells [8]
  IC50: 70 ± 30 nM

## COc1cccc2c1C(=O)c1c(O)c3c(c(O)c1C2=O)C[C@@](O)(C(=O)CO)C[C@@H]3O[C@H]1C[C@H](N)[C@H](O)[C@H](C)O1 [doxorubicin]
[9]
  SA-β-gal staining of MEF cells (positive control): stained blue
